Test results from BindingDB's records for doi:10.1002/cbdv.201000242 (East China University of Science and Technology, 2011).

Experiments:
Test in all cases: Inhibitory Assay
Settings in all cases: pH 6.5
[1] = target: Receptor-type tyrosine-protein phosphatase F (Homo sapiens, UniProt P10586)
Description: (§1) Enzymatic activity of enzyme was evaluated using pNPP assay. Briefly, a reaction mixture (100 µL) containing 50 mM MOPS (pH 6.5), 2 mM pNPP and recombinant enzymes was monitored at 405 nm for 2 min at 30 °C.

[2] = target: T1, Tyrosine-protein phosphatase non-receptor type 1 (Homo sapiens, UniProt P18031)
T1 sequence (P18031 whole entry): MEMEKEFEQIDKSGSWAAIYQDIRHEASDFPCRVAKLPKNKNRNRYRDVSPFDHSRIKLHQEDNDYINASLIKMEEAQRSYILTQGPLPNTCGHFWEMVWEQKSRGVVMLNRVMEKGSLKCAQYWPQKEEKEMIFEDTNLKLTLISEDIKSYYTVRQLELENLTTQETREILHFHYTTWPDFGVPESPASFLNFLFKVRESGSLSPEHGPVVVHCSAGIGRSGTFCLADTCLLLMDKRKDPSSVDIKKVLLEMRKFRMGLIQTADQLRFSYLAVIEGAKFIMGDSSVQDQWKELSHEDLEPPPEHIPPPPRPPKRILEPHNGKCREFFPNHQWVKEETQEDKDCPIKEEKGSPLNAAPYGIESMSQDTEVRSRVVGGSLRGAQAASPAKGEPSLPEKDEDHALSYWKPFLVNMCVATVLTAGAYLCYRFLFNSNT
Description: as §1

[3] = target: T2, Tyrosine-protein phosphatase non-receptor type 11 (Homo sapiens, UniProt Q06124)
T2 sequence (Q06124 whole entry): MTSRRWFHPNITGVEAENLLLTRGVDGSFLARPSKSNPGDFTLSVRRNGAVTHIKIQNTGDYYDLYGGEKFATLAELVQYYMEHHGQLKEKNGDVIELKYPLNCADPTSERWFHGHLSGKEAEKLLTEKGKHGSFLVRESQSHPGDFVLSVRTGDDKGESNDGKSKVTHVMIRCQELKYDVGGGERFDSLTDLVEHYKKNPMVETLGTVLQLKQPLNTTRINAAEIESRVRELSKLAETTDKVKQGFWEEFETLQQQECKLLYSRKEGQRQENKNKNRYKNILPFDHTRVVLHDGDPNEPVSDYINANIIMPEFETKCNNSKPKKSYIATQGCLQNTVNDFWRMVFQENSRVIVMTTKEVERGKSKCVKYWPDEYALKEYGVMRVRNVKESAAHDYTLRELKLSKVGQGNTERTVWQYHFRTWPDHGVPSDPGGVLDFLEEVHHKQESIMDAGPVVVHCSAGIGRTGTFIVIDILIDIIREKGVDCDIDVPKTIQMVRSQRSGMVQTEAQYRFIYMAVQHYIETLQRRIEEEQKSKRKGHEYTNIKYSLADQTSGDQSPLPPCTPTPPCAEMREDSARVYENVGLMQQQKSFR
Description: as §1

[4] = target: T3, Tyrosine-protein phosphatase non-receptor type 2 (Homo sapiens, UniProt P17706)
T3 sequence (P17706 whole entry): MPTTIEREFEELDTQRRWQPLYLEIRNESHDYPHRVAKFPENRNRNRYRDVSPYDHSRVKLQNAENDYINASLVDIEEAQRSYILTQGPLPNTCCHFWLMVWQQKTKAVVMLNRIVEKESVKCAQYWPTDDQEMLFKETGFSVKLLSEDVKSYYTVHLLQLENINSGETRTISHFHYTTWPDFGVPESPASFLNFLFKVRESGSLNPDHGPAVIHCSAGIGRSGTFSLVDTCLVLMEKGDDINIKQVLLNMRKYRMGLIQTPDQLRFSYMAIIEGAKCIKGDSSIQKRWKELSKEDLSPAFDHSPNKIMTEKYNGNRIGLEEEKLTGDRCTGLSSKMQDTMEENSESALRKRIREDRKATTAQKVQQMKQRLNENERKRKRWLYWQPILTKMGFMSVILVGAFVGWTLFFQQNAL
Description: as §1

[5] = target: Tyrosine-protein phosphatase non-receptor type 6 (Homo sapiens, UniProt P29350)
Tyrosine-protein phosphatase non-receptor type 6, sequence (P29350 whole entry): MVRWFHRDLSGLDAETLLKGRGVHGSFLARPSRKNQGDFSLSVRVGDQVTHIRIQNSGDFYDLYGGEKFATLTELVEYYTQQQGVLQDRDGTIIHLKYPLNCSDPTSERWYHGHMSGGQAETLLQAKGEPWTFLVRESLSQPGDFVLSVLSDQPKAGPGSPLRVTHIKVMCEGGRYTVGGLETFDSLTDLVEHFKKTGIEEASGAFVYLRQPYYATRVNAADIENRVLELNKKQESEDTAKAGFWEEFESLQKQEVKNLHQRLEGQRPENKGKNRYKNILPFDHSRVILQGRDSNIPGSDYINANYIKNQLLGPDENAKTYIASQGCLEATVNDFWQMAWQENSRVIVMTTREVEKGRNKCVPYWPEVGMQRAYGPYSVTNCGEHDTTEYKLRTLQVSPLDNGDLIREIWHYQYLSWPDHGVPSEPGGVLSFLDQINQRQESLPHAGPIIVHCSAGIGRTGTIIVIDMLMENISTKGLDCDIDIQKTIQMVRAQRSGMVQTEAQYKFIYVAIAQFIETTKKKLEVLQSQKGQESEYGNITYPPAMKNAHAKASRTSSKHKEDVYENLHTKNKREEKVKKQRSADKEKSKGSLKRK
Description: as §1

Receptor-type tyrosine-protein phosphatase F, sequence (P10586 whole entry): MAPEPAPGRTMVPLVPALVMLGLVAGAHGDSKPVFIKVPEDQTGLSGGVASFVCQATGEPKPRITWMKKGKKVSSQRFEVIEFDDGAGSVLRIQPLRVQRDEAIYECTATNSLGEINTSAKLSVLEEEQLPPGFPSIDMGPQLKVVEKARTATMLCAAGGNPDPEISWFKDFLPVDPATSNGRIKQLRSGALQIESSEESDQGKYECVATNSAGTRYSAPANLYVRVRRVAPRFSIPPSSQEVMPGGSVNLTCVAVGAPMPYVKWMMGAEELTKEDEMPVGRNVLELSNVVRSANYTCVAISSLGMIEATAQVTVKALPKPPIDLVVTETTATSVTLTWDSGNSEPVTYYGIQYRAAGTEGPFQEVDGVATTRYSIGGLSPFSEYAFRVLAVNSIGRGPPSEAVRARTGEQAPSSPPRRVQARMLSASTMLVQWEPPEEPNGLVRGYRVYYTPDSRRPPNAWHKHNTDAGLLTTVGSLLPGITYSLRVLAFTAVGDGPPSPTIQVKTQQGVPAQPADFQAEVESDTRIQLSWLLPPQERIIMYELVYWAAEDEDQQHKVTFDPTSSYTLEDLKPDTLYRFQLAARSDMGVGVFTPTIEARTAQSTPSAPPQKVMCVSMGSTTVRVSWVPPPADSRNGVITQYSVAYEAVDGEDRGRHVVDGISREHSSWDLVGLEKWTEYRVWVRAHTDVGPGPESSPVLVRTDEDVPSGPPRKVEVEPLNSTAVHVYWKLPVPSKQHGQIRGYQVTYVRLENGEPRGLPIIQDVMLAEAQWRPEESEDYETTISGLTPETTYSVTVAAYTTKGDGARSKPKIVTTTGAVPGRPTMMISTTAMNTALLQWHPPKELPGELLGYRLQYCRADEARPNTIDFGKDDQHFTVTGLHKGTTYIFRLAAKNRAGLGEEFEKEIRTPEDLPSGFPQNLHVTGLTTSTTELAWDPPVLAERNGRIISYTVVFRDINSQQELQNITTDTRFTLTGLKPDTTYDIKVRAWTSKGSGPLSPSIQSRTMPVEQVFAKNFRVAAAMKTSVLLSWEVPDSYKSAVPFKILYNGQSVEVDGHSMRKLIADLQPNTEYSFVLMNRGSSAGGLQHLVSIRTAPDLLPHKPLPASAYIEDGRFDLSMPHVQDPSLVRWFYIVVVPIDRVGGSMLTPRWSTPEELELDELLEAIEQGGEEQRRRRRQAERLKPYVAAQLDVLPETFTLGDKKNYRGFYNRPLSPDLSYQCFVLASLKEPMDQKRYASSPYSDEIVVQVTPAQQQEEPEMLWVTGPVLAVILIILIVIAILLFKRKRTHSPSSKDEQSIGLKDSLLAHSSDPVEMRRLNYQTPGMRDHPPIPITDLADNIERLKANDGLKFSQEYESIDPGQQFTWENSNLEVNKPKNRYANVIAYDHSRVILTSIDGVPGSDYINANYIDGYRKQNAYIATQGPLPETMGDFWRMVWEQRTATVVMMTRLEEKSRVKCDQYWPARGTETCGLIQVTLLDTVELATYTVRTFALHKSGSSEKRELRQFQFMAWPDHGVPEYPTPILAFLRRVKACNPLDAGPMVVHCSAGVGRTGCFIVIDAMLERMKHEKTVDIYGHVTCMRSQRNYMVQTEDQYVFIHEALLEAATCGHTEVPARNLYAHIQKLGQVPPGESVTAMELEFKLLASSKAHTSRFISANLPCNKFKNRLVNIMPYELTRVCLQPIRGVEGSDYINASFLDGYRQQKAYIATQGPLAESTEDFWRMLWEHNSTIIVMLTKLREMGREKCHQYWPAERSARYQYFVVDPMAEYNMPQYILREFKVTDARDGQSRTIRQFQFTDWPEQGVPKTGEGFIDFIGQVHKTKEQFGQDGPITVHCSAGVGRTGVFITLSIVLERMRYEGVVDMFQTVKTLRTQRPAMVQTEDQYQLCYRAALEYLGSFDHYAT

Row | Structure (SMILES) | IC50 [1] | IC50 [2] | IC50 [3] | IC50 [4] | IC50 [5]
1 | CC(=O)OC[C@H]1O[C@H](n2cc(Cn3cnc4c(Cl)nc(N)nc43)nn2)[C@H](OC(C)=O)[C@@H](OC(C)=O)[C@@H]1OC(C)=O [2-Amino-6-chloro-9-{[1-(2,3,4,6-tetra-O-acetyl-b-d-glucopyranosyl)-1H-1,2,3-triazol-4-yl]methyl}-9H-purine (7)] | > 80 µM | > 80 µM | > 80 µM | > 80 µM | > 80 µM
2 | C#CCn1cnc2c(Cl)nc(N)nc21 [6-Chloro-9-(prop-2-yn-1-yl)-9H-purin-2-amine (2)] | > 80 µM | 232 µM | > 80 µM | > 80 µM | > 80 µM
3 | CC(=O)OC[C@H]1O[C@H](n2cc(CNc3nc(Cl)c4ncn(Cc5cn([C@H]6O[C@H](COC(C)=O)[C@@H](OC(C)=O)[C@H](OC(C)=O)[C@H]6OC(C)=O)nn5)c4n3)nn2)[C@H](OC(C)=O)[C@@H](OC(C)=O)[C@@H]1OC(C)=O [6-Chloro-9-{[1-(2,3,4,6-tetra-O-acetyl-b-d-glucopyranosyl)-1H-1,2,3-triazol-4-yl]methyl}-2-({[1-(2,3,4,6-tetra-O-acetyl-b-d-glucopyranosyl)-1H-1,2,3-triazol-4-yl]methyl}amino)-9H-purine (8)] | > 80 µM | > 80 µM | > 80 µM | > 80 µM | > 80 µM
4 | CO[C@H]1O[C@H](Cn2cc(CNc3nc(Cl)c4ncn(Cc5cn(C[C@H]6O[C@H](OC)[C@H](OCc7ccccc7)[C@@H](OCc7ccccc7)[C@@H]6OCc6ccccc6)nn5)c4n3)nn2)[C@@H](OCc2ccccc2)[C@H](OCc2ccccc2)[C@H]1OCc1ccccc1 [6-Chloro-N,9-bis[(1-{[(2R,3R,4S,5R,6S)-3,4,5-tris(benzyloxy)-tetrahydro-6-methoxy-2H-pyran-2-yl]methyl}-1H-1,2,3-triazol-4-yl)methyl]-9H-purin-2-amine (13)] | > 80 µM | 2.2 µM | > 80 µM | 11 µM | > 80 µM
5 | CO[C@H]1O[C@H](Cn2cc(CNc3nc(Cl)c4ncn(Cc5cn(C[C@H]6O[C@H](OC)[C@H](OCc7ccccc7)[C@@H](OCc7ccccc7)[C@H]6OCc6ccccc6)nn5)c4n3)nn2)[C@H](OCc2ccccc2)[C@H](OCc2ccccc2)[C@H]1OCc1ccccc1 [6-Chloro-N,9-bis[(1-{[(2R,3S,4S,5R,6S)-3,4,5-tris(benzyloxy)-tetrahydro-6-methoxy-2H-pyran-2-yl]methyl}-1H-1,2,3-triazol-4-yl)methyl]-9H-purin-2-amine (14)] | > 80 µM | 3.2 µM | > 80 µM | 18 µM | > 80 µM
6 | C#CCNc1nc(Cl)c2ncn(CC#C)c2n1 [6-Chloro-N,9-di(prop-2-yn-1-yl)-9H-purin-2-amine (3)] | > 80 µM | 75.7 µM | > 80 µM | > 80 µM | > 80 µM
7 | COc1nc(NCc2cn(C[C@H]3O[C@H](OC)[C@H](OCc4ccccc4)[C@@H](OCc4ccccc4)[C@H]3OCc3ccccc3)nn2)nc2c1ncn2Cc1cn(C[C@H]2O[C@H](OC)[C@H](OCc3ccccc3)[C@@H](OCc3ccccc3)[C@H]2OCc2ccccc2)nn1 [6-Methoxy-N,9-bis[ (1-{[(2R,3S,4S,5R,6S)-3,4,5-tris(benzyloxy)-tetrahydro-6-methoxy-2H-pyran-2-yl]methyl}-1H-1,2,3-triazol-4-yl)methyl]-9H-purin-2-amine (16)] | > 80 µM | 1.5 µM | 35.7 µM | 2.9 µM | 24.9 µM
8 | COc1nc(NCc2cn(C[C@H]3O[C@H](OC)[C@H](OCc4ccccc4)[C@@H](OCc4ccccc4)[C@@H]3OCc3ccccc3)nn2)nc2c1ncn2Cc1cn(C[C@H]2O[C@H](OC)[C@H](OCc3ccccc3)[C@@H](OCc3ccccc3)[C@@H]2OCc2ccccc2)nn1 [6-Methoxy-N,9-bis[(1-{[(2R,3R,4S,5R,6S)-3,4,5-tris(benzyloxy)-tetrahydro-6-methoxy-2H-pyran-2-yl]methyl}-1H-1,2,3-triazol-4-yl)methyl]-9H-purin-2-amine (15)] | > 80 µM | 7.9 µM | > 80 µM | 16.2 µM | > 80 µM
9 | CO[C@H]1O[C@H](Cn2cc(Cn3cnc4c(Cl)nc(N)nc43)nn2)[C@H](OCc2ccccc2)[C@H](OCc2ccccc2)[C@H]1OCc1ccccc1 [Methyl 6-{4-[(2-Amino-6-chloro-9H-purin-9-yl)methyl]-1H-1,2,3-triazol-1-yl}-2,3,4-tri-O-benzyl-6-deoxy-a-d-galactopyranoside (10)] | > 80 µM | 11.1 µM | > 80 µM | 53.6 µM | > 80 µM
10 | CO[C@H]1O[C@H](Cn2cc(Cn3cnc4c(Cl)nc(N)nc43)nn2)[C@@H](OCc2ccccc2)[C@H](OCc2ccccc2)[C@H]1OCc1ccccc1 [Methyl 6-{4-[(2-Amino-6-chloro-9H-purin-9-yl)methyl]-1H-1,2,3-triazol-1-yl}-2,3,4-tri-O-benzyl-6-deoxy-a-d-glucopyranoside (9)] | > 80 µM | 7.2 µM | > 80 µM | 29.9 µM | > 80 µM
11 | COc1nc(N)nc2c1ncn2Cc1cn(C[C@H]2O[C@H](OC)[C@H](OCc3ccccc3)[C@@H](OCc3ccccc3)[C@H]2OCc2ccccc2)nn1 [Methyl 6-{4-[(2-Amino-6-methoxy-9H-purin-9-yl)methyl]-1H-1,2,3-triazol-1-yl}-2,3,4-tri-O-benzyl-6-deoxy-a-d-galactopyranoside (12)] | > 80 µM | > 80 µM | > 80 µM | > 80 µM | > 80 µM
12 | COc1nc(N)nc2c1ncn2Cc1cn(C[C@H]2O[C@H](OC)[C@H](OCc3ccccc3)[C@@H](OCc3ccccc3)[C@@H]2OCc2ccccc2)nn1 [Methyl 6-{4-[(2-Amino-6-methoxy-9H-purin-9-yl)methyl]-1H-1,2,3-triazol-1-yl}-2,3,4-tri-O-benzyl-6-deoxy-a-d-glucopyranoside (11)] | > 80 µM | > 80 µM | > 80 µM | > 80 µM | > 80 µM
